US20070249691A1, “Mercaptoimidazoles as Ccr2 Receptor Antagonists” (priority 2004, published 2007)

Tests used:
CCR2 [1] = target: T1, CCR2 (Homo sapiens, UniProt P41597); test: Chemotactic response of human PBMC to MCP-1; type: cell-based; set-up: Mononuclear cells from human heparinized peripheral blood (PBMC) were isolated; endogenous in cells; host or cells: human peripheral blood mononuclear cells; conditions: inhibition of migration of human PBMC to 30 ng/ml hMCP-1, 105 minutes
T1 sequence (P41597 1-360 isoform P41597-2): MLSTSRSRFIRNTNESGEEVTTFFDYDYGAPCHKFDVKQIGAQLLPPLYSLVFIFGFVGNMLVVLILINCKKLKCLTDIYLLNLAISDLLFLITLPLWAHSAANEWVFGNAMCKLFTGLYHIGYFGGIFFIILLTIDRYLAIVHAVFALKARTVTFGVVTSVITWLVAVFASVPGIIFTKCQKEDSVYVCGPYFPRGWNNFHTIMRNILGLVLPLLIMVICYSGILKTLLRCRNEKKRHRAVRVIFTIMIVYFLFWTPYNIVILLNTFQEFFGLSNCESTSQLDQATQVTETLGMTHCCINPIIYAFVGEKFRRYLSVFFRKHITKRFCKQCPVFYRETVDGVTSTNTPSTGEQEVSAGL
Description: The CCR2 antagonistic activity of the compounds of the present invention can also be determined by measuring the effect of the compounds on the chemotactic response of cells in the presence of a chemokine, such as for example MCP-1.
Mononuclear cells from human heparinized peripheral blood (PBMC) were isolated using Ficoll-Paque gradient centrifugation (Amersham Biosciences). Assays of chemotactic responsiveness were performed using disposable 96-well chemotaxis chambers (ChemoTx, Neuro Probe) with 5-μm pore size polycarbonate (PVP-free) filter membranes. Mononuclear cells were fluorescently labeled with 5 μg/ml Calcein-AM (Molecular Probes, Eugene, Oreg.) at 37° C. for 30 minutes. Labeled cells were washed twice and resuspended at 5×10^6 cells/ml in Hanks' Balanced Salt Solution (Gibco BRL) supplemented with 0.2% bovine serum albumin. Subsequently, cells were pre-incubated for 10 minutes at room temperature with serial dilutions of the compounds in DMSO (dimethylsulfoxide) (final DMSO concentration of 0.2%). Bottom wells of the chemotaxis chamber were loaded with 28 μl medium containing 30 ng/ml recombinant hMCP-1 (R&D) or buffer only. Pre-treated cells (100.000 cells) were added in triplicate to the topside of the filter (20 μl) and incubated at 37° C. in humidified air containing 5% CO2. After 105 minutes incubation, the non-migrated cells were removed from the top of the filter by gently wiping the filter with a tissue. The migrated cells were measured using a fluorescent plate reader (λexcitation=485 nm; λemission=538 nm). The chemotactic response can be expressed as chemotactic index (C.I.), being the ratio of the means of migrated cells in the presence of MCP-1 and the means of migrated cells in the absence of chemokine. Percentage inhibition was calculated using the formula: [formula]
with Fsample, the fluorescence of the cells pre-incubated with 10, 1, 0.1, 0.01 or 0.001 μM compound and migrated to 30 ng/ml MCP-1 in the bottom wells; FMCP-1, the fluorescence of the cells pre-incubated with buffer-0.2% DMSO and migrated to 30 ng/ml MCP-1 and Fbuffer, the fluorescence of cells pre-incubated with buffer-0.2% DMSO and spontaneous migrated to buffer in the bottom wells. Table 7 lists the IC50 values (μM) obtained in the above-described test for compounds of formula (I). Assays were run in triplicate and repeated 2-7 times.

CCR2B = target: T2, CCR2B (Homo sapiens, UniProt P41597); test: 125I-MCP-1 radioligand binding assay, membranes from CCR2B-transfected CHO cells; conditions: competition with 0.15 nM 125I-MCP-1, CCR2B-transfected CHO cell membranes, Cheng-Prusoff
T2 construct: expressed in transfected cells; host or cells: CHO cells (membrane preparation)
T2 sequence (P41597 1-360 isoform P41597-2): T1 sequence (P41597 1-360 isoform P41597-2)
Description: Radioligand Binding Assay.
^125I-MCP-1 binding assays were performed in 96:well plates with 40 μg of protein per well. Compounds were dissolved and diluted in DMSO to 100× dilutions. A 10× concentration range of compounds was prepared in binding buffer (10% DSMO). Competition binding assays contained the following components in a total volume of 250 μl: 25 μl of the appropriate compound dilution (final concentration of 1% DMSO), 200 μl membranes from CCR2B-transfected CHO cells dissolved in binding buffer and 25 μl ^125I-MCP-1 (Bolton and Hunter labeled, Amersham, specific activity=2000 Ci/mmol, 0.15 nM final). Binding buffer was composed of 25 mM HEPES, 5 mM MgCl2, 1 mM CaCl2, 0.5% protease-free bovine serum albumin, pH 7.4. After 90 minutes incubation at 25° C. membranes were harvested on GF/B filters—presoaked in 0.5% polyethylenimine, followed by washing with buffer containing 25 mM HEPES, 5 mM MgCl2, 1 mM CaCl2, 5 mM NaCl, pH 7.4. Filter bound radioactivity was determined by liquid scintillation counting. EC50 values (μM) and Ki values (μM) were calculated. The ED50 value indicates the concentration of the test compound that competes with MCP-1 for half of the specific binding sites; the Ki value indicates the equilibrium dissociation constant, i.e. the concentration of the test compound that will bind to half of the binding sites at equilibrium in the absence of radioligand or other competitors. EC50 values and Ki values were calculated using non-linear regression in Graphpad Prism. Prism calculates the Ki or affinity of the receptor for the competing drug using the equation of Cheng and Prusoff (Biochem. Pharmacol. 1973, 22: 3099-3108). A low Ki indicates a high affinity of the receptor for the test compound. [formula] wherein Kd describes the affinity of the radioligand for the receptor, i.e. the concentration of the radioligand that will bind to half of the binding sites at equilibrium in the absence of competitors.
Table 6 lists Ki values (μM) obtained in the above-described test for compounds of formula (I).

CCR2 [2] = target: T1, CCR2; test: Inhibition of MCP-1 induced Ca-flux in human THP-1 cells; type: cell-based; set-up: host or cells: THP-1 (human monocytic cell line); conditions: -log IC50 (molar), inhibition of specific MCP-1 (10^-7 M hMCP-1) induced Ca2+ flux, FLIPR
Description: Inhibition of MCP-1 Induced Ca-Flux in Human THP-1 Cells
MCP-1 binding to the CCR2 receptor induces a rapid and transient intracellular release of Ca^2+ (secondary messenger) in several cell lines (Charo et al, PNAS 1994). Free Ca^2+ levels can be measured using a Ca^2+ sensitive dye. When the CCR2 receptor is blocked with a CCR2 receptor antagonist, the MCP-1 induced release of Ca^2+ is inhibited.
Human THP-1 cells (monocytic cell line, ATCC TIB-202) were cultured in RPMI 1640 medium supplemented with 10% fetal calf serum (FCS), 1% L-Glutamine, penicillin (50 U/ml) and streptomycin (50 μg/ml) (all GIBCO BRL, Gent). After centrifugation, cells were loaded for 30 minutes with the Ca^2+ sensitive fluorescent dye Fluo-3 μM (Molecular Probes, Leiden, Netherlands) (2 million cells/ml in RPMI medium containing 4 μM Fluo-3 μM, 20 mM HEPES, 0.1% Bovine Serum Albumin (BSA) and 5 mM probenecid). Excess dye was removed by 3-fold washing with buffer (5 mM HEPES, 140 mM NaCl, 1 mM MgCl2, 5 mM KCl, 10 mM glucose, 2.5 mM probenecid, 1.25 mM CaCl2, 0.1% BSA; all further incubations were done in this buffer). Cells were plated at a density of 150 000 cells/well in dark-wall 96-well plates (Costar, Cambridge, Mass.) and sedimented by centrifugation (1 minute). The cells were pre-incubated for 20 minutes with test compound. Then, 10^−7 M hMCP-1 (Bachem, Bubendorf, Switserland) was added. Changes in intracellular free Ca^2+ concentration were measured using the Fluorescent Imaging Plate Reader (FLIPR, Molecular Devices, Munchen, Germany). Fluorescence was recorded every second from 10 seconds before the addition of the MCP-1 till 2 minutes after the addition (first minute: 60 records with 1 second intervals, second minute 20 records with 3 second intervals). The maximal fluorescence obtained during this time frame was used for further calculations.
Table 5 reports pIC50 values obtained in the above-described test for compounds of formula (I). pIC50 defines—log IC50 wherein IC50 is the molar concentration of the test compound which inhibits 50% of specific MCP-1 induced Ca^2+ flux.

Row | melting point | IC50 (CCR2 [1]) | Ki (CCR2B) | IC50 (CCR2 [2]) | SMILES
1 | – | – | – | 55 nM | CCC(c1ccc(Cl)c(Cl)c1)n1c(C(=O)OC)c(-c2cccs2)[nH]c1=S (stereo not drawn) [Compound 6]
2 | – | – | – | 13.2 nM | CCC(c1ccc(Cl)c(Cl)c1)n1c(C(=O)OC)c(-c2ccno2)[nH]c1=S (stereo not drawn) [Compound 25]
3 | – | – | 50 nM | 7.94 nM | CCC(c1ccc(Cl)c(Cl)c1)n1c(C(=O)OC)c(-c2ccno2)[nH]c1=S (stereo not drawn) [Compound 26]
4 | – | – | – | 33.1 nM | CCC(c1ccc(Cl)c(Cl)c1)n1c(C(=O)OC)c(-c2nnc(C)o2)[nH]c1=S (stereo not drawn) [Compound 27]
5 | – | 367 nM | 10 nM | 15.8 nM | CCC(c1ccc(Cl)c(Cl)c1)n1c(C(=O)OC)c(-c2cc(C)on2)[nH]c1=S (stereo not drawn) [Compound 28]
6 | – | 214 nM | 70 nM | 75.9 nM | CCC(c1ccc(Cl)c(Cl)c1)n1c(C(=O)OC)c(-c2ccccc2)[nH]c1=S (stereo not drawn) [Compound 31]
7 | – | – | – | 12.6 nM | CCC(c1ccc(Cl)c(Cl)c1)n1c(C(=O)OC)c(-c2ccncc2)[nH]c1=S (stereo not drawn) [Compound 33]
8 | – | – | – | 25.1 nM | CCC(c1ccc(Cl)c(Cl)c1)n1c(C(=O)OC)c(-c2cnccn2)[nH]c1=S (stereo not drawn) [Compound 34]
9 | – | 474 nM | – | 39.8 nM | CCC(c1ccc(Cl)c(Cl)c1)n1c(C(=O)OC)c(-c2cccnc2)[nH]c1=S (stereo not drawn) [Compound 51]

Further lines, the compound ahead of its results:

Row | SMILES | melting point | IC50 (CCR2 [1]) | Ki (CCR2B) | IC50 (CCR2 [2])
10 | CCC(c1ccc(Cl)c(Cl)c1)n1cc(-c2sc(N)nc2C)nc1S.Cl (stereo not drawn) | 301.8 to 303.3 °C | – | – | –
11 | CCC(c1ccc(F)c(F)c1)n1c(C(=O)OC)c(-c2ccno2)[nH]c1=S (stereo in doubt) [Compound 53, (S)-3-[1-(3,4-difluoro-phenyl)propyl]-5-isoxazol-5-yl-2-thioxo-2,3-dihydro-1H-imidazole-4-carboxylic acid methyl ester] | – | 108 nM | 30 nM | –
12 | CCC(c1ccc(F)c(F)c1)n1c(S)nc(-c2ccno2)c1C(=O)OC (stereo not drawn) [Compound 7] | – | – | – | 11.7 nM
13 | CCC(c1ccc(Cl)c(Cl)c1)n1c(S)nc(-c2nnco2)c1C(=O)OC (stereo not drawn) [Compound 9] | – | – | – | 35.5 nM
14 | CCC(c1ccc(F)c(F)c1)n1c(C(N)=O)c(-c2nnc(C)o2)[nH]c1=S (stereo not drawn) [Compound 13] | 228 to 229 °C | – | 300 nM | –
15 | CCC(c1ccc(F)c(F)c1)n1c(C(=O)NCCO)c(-c2nnc(C)o2)[nH]c1=S (stereo not drawn) [Compound 14] | 165 to 166 °C | – | – | –
16 | CCC(c1ccc(F)c(F)c1)n1c(S)nc(-c2cc(C)on2)c1C(=O)OCCOC (stereo not drawn) [Compound 16] | – | – | – | 31.6 nM
17 | CCC(c1ccc(Cl)c(Cl)c1)n1c(C(=O)O)c(-c2cccs2)[nH]c1=S (stereo not drawn) [Compound 23] | – | 24 nM | – | –
18 | CCC(c1ccc(Cl)c(Cl)c1)n1c(C(=O)OC)c(-c2snnc2C)[nH]c1=S (stereo not drawn) [Compound 24] | – | – | – | 72.4 nM
19 | CCC(c1ccc(Cl)c(Cl)c1)n1c(C(=O)OC)c(-c2ccccn2)[nH]c1=S (stereo not drawn) [Compound 32] | – | – | – | 25.1 nM
20 | CCC(c1ccc(Cl)c(Cl)c1)n1c(C(N)=O)c(-c2nnc(C)o2)[nH]c1=S (stereo not drawn) [Compound 36] | – | 244 nM | 70 nM | 39.8 nM
21 | CCCC(c1ccc(Cl)c(Cl)c1)n1c(C(=O)OC)c(-c2nnc(C)o2)[nH]c1=S (stereo not drawn) [Compound 40] | – | – | – | 43.7 nM
22 | CC[C@H](c1ccc(F)c(F)c1)n1c(C(=O)OC)c(-c2ccno2)[nH]c1=S [Compound 43] | – | – | 30 nM | 7.94 nM
23 | CCCC(c1ccc(F)c(F)c1)n1c(C(=O)OC)c(-c2ccno2)[nH]c1=S (stereo not drawn) [Compound 48] | – | – | – | 12.6 nM
24 | CCCC(c1ccc(F)c(F)c1)n1c(C(=O)OC)c(-c2cc(C)on2)[nH]c1=S (stereo not drawn) [Compound 49] | – | – | – | 25.1 nM
25 | COCC(c1ccc(F)c(F)c1)n1c(C(=O)OC)c(-c2nnc(C)o2)[nH]c1=S (stereo not drawn) [Compound 50] | 102.8 to 102.9 °C | – | – | –
